What all share (format): in vivo
For one series, the system named is writhing (mouse). Description: Writhing test (mouse), 60 minutes after peroral administration. The conditions noted are these: po, 1 h, orally, 60 minutes after administration, 50% of animals show no more than one writhing. As for the experimental part:
In carrying out the experiment there are used in each case 8 male mice (20-22 g) per dosage. 60 minutes after the oral administration of the test substance 10 ml/kg of the test solution is administered to the animals by intraperitoneal injection. After a latent period of 5 minutes, the number of animals in which during 5 minutes no more than one characteristic writhing symptom, that is, convulsive stretching movement of the body, occurs is registered. The ED 50 indicates the oral dosage in mg/kg at which 50% of the animals show no more than one writhing.
60 minutes after peroral administration
For orientation: In writhing tests, fewer writhes than in controls are read as antinociception.

The subject of a further series is Anaesthetized cat. As to the kind of experiment: Blood pressure and heart rate in the anaesthetized cat (i.v.). The conditions noted are these: maximum variation from control. As for the experimental part:
(§1) The action of the test compounds on the activity in the sympathetic nervous system is investigated on cats in urethane narcosis. The preganglionic sympathetic activity is derived by means of biopolar platinum electrodes from the splanchnic nerve and the postganglionic sympathetic activity is derived from a nerve branch to the kidney according to the method of G. Hausler [Naunyn-Schmiedeberg's Arch. Pharmacol. 286, 97-111 (1974)]. Moreover, there is measured the arterial blood pressure from the femoral artery as well as the heart rate. The test substance is injected intravenously. When a test substance in blood pressure-lowering dosages inhibits the sympathetic activity during more than 30 minutes by more than 30%, then it is qualified as having "central sympathetic-inhibitory activity".
(§2) In the Table which follows, the results obtained with compounds A to H are compiled. The maximum percentage variations from the control values are given.

The test system of series [1] is sympathetic nervous system. Description: Central sympathetic-inhibitory activity (cats in urethane narcosis). The conditions noted are these: anaesthetized cat, i.v.; positive if sympathetic activity inhibited >30% for >30 minutes in blood pressure-lowering dosages.
Text: The central sympathetic-inhibitory activity can be determined according to the following method:
as §1

In series [2] the test system is Spontaneously hypertensive rat. As to the kind of experiment: Cardiovascular activities: systolic blood pressure and heart rate in conscious spontaneously hypertensive rats (p.o.). Conditions: maximum variation from control. As for the experimental part:
The cardiovascular activities can be determined according to the following method:
The systolic blood pressure and the heart rate are measured several times on conscious, spontaneously hypertensive female rats before the administration of the subtance. Per dosage there are used 5 experimental animals with a body weight of about 300 g. The administration of substance is carried out by means of a stomach probe. Both parameters are measured 1, 3, 6 and 16 hours after the administration and the percentage variation from the control values is calculated. The systolic blood pressure is measured indirectly at the tail artery of the rate according to the method of Gerold et al. (Helv. Physiol. Acta 24, 58-69 (1966); Arzneimittelforschung 18, 1285-1287 (1968).
as §2

The subject of series [3] is electrical stimulation of the dental pulp. As to the kind of experiment: Activity against an electrical stimulation of the dental pulp in apes, peroral. Conditions: after peroral administration.
Series [4] concerns morphine-antagonistic activity. As to the kind of experiment: Morphine-antagonistic activity.
The next series has as its system α-adrenergic receptor. Description: Cancellation of the analgesia by the α-adrenergic receptor blocker yohimbine.
For the next series, the system named is opiate receptor. Description: Cancellation of the analgesia by the opiate receptor blocker naloxone.

We go through 8 molecules from US4366160A, “Imidazole derivatives” (Hoffmann-La Roche Inc., priority 1980, dated 1982).

The term ED50 denotes the dose at which the effect has come halfway, by size or by number of responders. A high value points to a need for a large dose.

Take `Cc1ccc(CON2CCNC2=Nc2c(Cl)cccc2Cl)[n+]([O-])c1` [F, 2-([{2-[(2,6-Dichlorophenyl)imino]-1-imidazolidinyl}oxy]methyl)-5-methylpyridin 1-oxide]: the ED50 in the series on writhing (mouse) came out at 27 mg/kg. Moreover, the “Blood pressure, Δ%” value in the series with Anaesthetized cat (1.0 mg/kg (i.v.)) is 0%; with Anaesthetized cat (3.0 mg/kg (i.v.)), 0%; in the series on Anaesthetized cat (10.0 mg/kg (i.v.)) it was 0%; in series [2] (1.0 mg/kg (p.o.)) it was -9.6%; in series [2] (3.0 mg/kg (p.o.)), -10.4%. Further, the “Heart rate, Δ%” value with Anaesthetized cat (1.0 mg/kg (i.v.)) is recorded as 0%; with Anaesthetized cat (3.0 mg/kg (i.v.)), 0%; with Anaesthetized cat (10.0 mg/kg (i.v.)) it was -10%; in series [2] (1.0 mg/kg (p.o.)) it was -4.9%; in series [2] (3.0 mg/kg (p.o.)), -5.5%. Also, in series [1], the Central sympathetic-inhibitory activity entry is “none”.

In the series with writhing (mouse), `[O-][n+]1ccc(O)cc1CON1CCNC1=Nc1c(Cl)cccc1Cl` [H, 2-([{2-[(2,6-Dichlorophenyl)imino]-1-imidazolidinyl}oxy]methyl)-4-pyridinol 1-oxide] returned an ED50 of 8.7 mg/kg. The “Blood pressure, Δ%” value in the series on Anaesthetized cat (1.0 mg/kg (i.v.)) is listed as -12%; with Anaesthetized cat (3.0 mg/kg (i.v.), (10')), -27%; with Anaesthetized cat (10.0 mg/kg (i.v.), (10')), -62%. Also, the “Heart rate, Δ%” value with Anaesthetized cat (1.0 mg/kg (i.v.)) is on record as 0%; in the series with Anaesthetized cat (3.0 mg/kg (i.v.)) it was -2%; in the series with Anaesthetized cat (10.0 mg/kg (i.v.), (10')), -18%. Besides, the Central sympathetic-inhibitory activity result in series [1] was “none”.

In the series on writhing (mouse), `Cc1cc[n+]([O-])c(CON2CCNC2=Nc2c(Cl)cccc2Cl)c1` [D, 2-([{2-[(2,6-Dichlorophenyl)imino]-1-imidazolidinyl}oxy]methyl)-4-methylpyridin 1-oxide] came in with an ED50 of 16 mg/kg. Moreover, the “Blood pressure, Δ%” value is listed as -22% with Anaesthetized cat (1.0 mg/kg (i.v.), (3')); -22% with Anaesthetized cat (3.0 mg/kg (i.v.)); -7.0% in series [2] (1.0 mg/kg (p.o.)); -10.2% in series [2] (3.0 mg/kg (p.o.)); -12.6% in series [2] (10.0 mg/kg (p.o.)). For the same molecule, the “Heart rate, Δ%” value in the series on Anaesthetized cat (3.0 mg/kg (i.v.)) is recorded as -27%; in series [2] (1.0 mg/kg (p.o.)), -10.0%; in series [2] (3.0 mg/kg (p.o.)) it was -7.5%; in series [2] (10.0 mg/kg (p.o.)) it was -13.3%. The Central sympathetic-inhibitory activity entry in series [1] was “none”.

Molecule `CC(ON1CCNC1=Nc1c(Cl)cccc1Cl)c1cc[n+]([O-])cc1` (centres unmarked) [E, 4-(1-[{2-[(2,6-Dichlorophenyl)imino]-1-imidazolidinyl}oxy]ethyl)pyridine1-oxide] showed a median effective dose (ED50) in the series on writhing (mouse) of 7.3 mg/kg. Further, the “Blood pressure, Δ%” value in the series with Anaesthetized cat (1.0 mg/kg (i.v.)) is 0%; in the series on Anaesthetized cat (3.0 mg/kg (i.v.)) it was -4%; with Anaesthetized cat (10.0 mg/kg (i.v.)) it was -12%; in series [2] (3.0 mg/kg (p.o.)), “+10.2%”; in series [2] (10.0 mg/kg (p.o.)), -13.9%; in series [2] (30.0 mg/kg (p.o.)) it was “+2.4%”. The “Heart rate, Δ%” value is reported as 0% in the series with Anaesthetized cat (1.0 mg/kg (i.v.)); 0% in the series on Anaesthetized cat (3.0 mg/kg (i.v.)); -14% in the series with Anaesthetized cat (10.0 mg/kg (i.v.)); “+4.0%” in series [2] (3.0 mg/kg (p.o.)); -13.2% in series [2] (10.0 mg/kg (p.o.)); -9.9% in series [2] (30.0 mg/kg (p.o.)). The Central sympathetic-inhibitory activity result in series [1] is “none”.

With `[O-][n+]1ccccc1CON1CCNC1=Nc1c(Cl)cccc1Cl` [Compound A, 2-([{2-[(2,6-Dichlorophenyl)imino]-1-imidazolidinyl}oxy]methyl)pyridine 1-oxide], the 50% effect level with writhing (mouse) (ED50) was put at a dose of 3.5 mg/kg. Besides, the “activity against an electrical stimulation of the dental pulp, relative to morphine” value in series [3] was “three-times stronger activity than morphine”. In addition, the addictive activity result in series [4] (concluded from lack of morphine-antagonistic activity) is on record as “absence of an addictive activity”. The morphine-antagonistic activity result in series [4] (in vivo) is “no morphine-antagonistic activity could be found”. Moreover, the “cancellation of analgesia with yohimbine” value in the series on α-adrenergic receptor is reported as “can be cancelled out”. In addition, in the series with opiate receptor, the “cancellation of analgesia with naloxone” value is “not with the opiate receptor blocker naloxone”. Also, the “Blood pressure, Δ%” value was -5% with Anaesthetized cat (1.0 mg/kg (i.v.)); -10% in the series with Anaesthetized cat (3.0 mg/kg (i.v.)); -10% in the series on Anaesthetized cat (10.0 mg/kg (i.v.)); -0.2% in series [2] (1.0 mg/kg (p.o.)); “+0.3%” in series [2] (3.0 mg/kg (p.o.)); -3.1% in series [2] (10.0 mg/kg (p.o.)). Moreover, the “Blood pressure, Δ%” value in series [2] (30.0 mg/kg (p.o.)) is -10.5%; in series [2] (100.0 mg/kg (p.o.)) it was 0%. For the same molecule, the “Heart rate, Δ%” value in the series with Anaesthetized cat (1.0 mg/kg (i.v.)) is given as -5%; in the series on Anaesthetized cat (3.0 mg/kg (i.v.)) it was -5%; in the series on Anaesthetized cat (10.0 mg/kg (i.v.)) it was -29%; in series [2] (1.0 mg/kg (p.o.)) it was “+15.2%”; in series [2] (3.0 mg/kg (p.o.)), “+3.3%”; in series [2] (10.0 mg/kg (p.o.)), -9.6%. Also, the results for the “Heart rate, Δ%” value in series [2] (30.0 mg/kg (p.o.)) and in series [2] (100.0 mg/kg (p.o.)) were -3.6% and 0%, respectively. The Central sympathetic-inhibitory activity result in series [1] was “none”.

Consider `[O-][n+]1ccccc1CON1CCNC1=Nc1cccc(Cl)c1Cl` [B, 2-([{2-[(2,3-Dichlorophenyl)imino]-1-imidazolidinyl}oxy]methyl)pyridine 1-oxide], for which, in the series on writhing (mouse), the ED50 is 1.3 mg/kg. For the same molecule, the “Blood pressure, Δ%” value in the series on Anaesthetized cat (1.0 mg/kg (i.v.)) is listed as -5%; with Anaesthetized cat (3.0 mg/kg (i.v.)), -25%; with Anaesthetized cat (10.0 mg/kg (i.v.), (15')), -50%; in series [2] (1.0 mg/kg (p.o.)) it was -4.1%; in series [2] (3.0 mg/kg (p.o.)), -7.8%. Moreover, the “Heart rate, Δ%” value with Anaesthetized cat (1.0 mg/kg (i.v.)) is recorded as 0%; in the series on Anaesthetized cat (3.0 mg/kg (i.v.)) it was -6%; in the series with Anaesthetized cat (10.0 mg/kg (i.v.)), -6%; in series [2] (1.0 mg/kg (p.o.)), -11.8%; in series [2] (3.0 mg/kg (p.o.)), -8.4%. Moreover, the Central sympathetic-inhibitory activity entry in series [1] is reported as “none”.

`Cc1cccc(CON2CCNC2=Nc2c(Cl)cccc2Cl)[n+]1[O-]` [G, 2-([{2-[(2,6-Dichlorophenyl)imino]-1-imidazolidinyl}oxy]methyl)-6-methylpyridin 1-oxide]: the ED50 in the series on writhing (mouse) came to 16 mg/kg. Also, the “Blood pressure, Δ%” value in the series with Anaesthetized cat (1.0 mg/kg (i.v.)) is on record as -4%; in the series on Anaesthetized cat (3.0 mg/kg (i.v.)), -4%; in the series with Anaesthetized cat (10.0 mg/kg (i.v.)), -15%; in series [2] (10.0 mg/kg (p.o.)), -12.0%. Further, the “Heart rate, Δ%” value was 0% with Anaesthetized cat (1.0 mg/kg (i.v.)), -4% in the series on Anaesthetized cat (3.0 mg/kg (i.v.)), -13% in the series on Anaesthetized cat (10.0 mg/kg (i.v.)) and -22.6% in series [2] (10.0 mg/kg (p.o.)). The Central sympathetic-inhibitory activity result in series [1] is given as “none”.

The molecule `CN(C1=NCCN1OCc1cccc[n+]1[O-])c1c(Cl)cccc1Cl` [C, 2-[{[2-(2,6-Dichloro-N-methylanilino)-2-imidazolin-1-yl]oxy}methyl]pyridine 1-oxide] had an ED50 with writhing (mouse) of 26 mg/kg. Further, the “Blood pressure, Δ%” value in the series on Anaesthetized cat (1.0 mg/kg (i.v.), (5')) is -14%; in the series with Anaesthetized cat (3.0 mg/kg (i.v.), (10')), -21%; in the series with Anaesthetized cat (10.0 mg/kg (i.v.), (10')) it was -21%; in series [2] (1.0 mg/kg (p.o.)), “+0.3%”; in series [2] (3.0 mg/kg (p.o.)) it was “+1.2%”; in series [2] (10.0 mg/kg (p.o.)), “+2.2%”. In addition, the “Heart rate, Δ%” value is -6% in the series with Anaesthetized cat (1.0 mg/kg (i.v.)); -22% in the series on Anaesthetized cat (3.0 mg/kg (i.v.), (10')); -22% in the series on Anaesthetized cat (10.0 mg/kg (i.v.), (10')); “+6.3%” in series [2] (1.0 mg/kg (p.o.)); -5.8% in series [2] (3.0 mg/kg (p.o.)); “+3.2%” in series [2] (10.0 mg/kg (p.o.)). In series [1], the Central sympathetic-inhibitory activity entry was “none”.
